In patent US8361971B2, “Tablet formulation of ezatiostat” (Telik, Inc., priority 2010, dated 2013):

Columns and labels:
Format in all cases: physicochemical
[1] = Description (appearance) of tablets on storage
Description: (§1) Tablets of ansolvate form D, were packaged with and without desiccant (Sorb-It Cannister, 1 gram). Fifty tablets were packaged in a round, white 1500 mL bottle with a screw cap over an induction seal. Impurities were assayed by HPLC. When stored at 25° C./60% RH with desiccant for 3 months, no increase in total impurities was observed. When stored at 40° C./75% RH with desiccant for 3 months, total impurities increased only by 0.3%. When stored at 40° C./75% RH without desiccant for 3 months, total impurities still increased by 1.1%. As tabulated below, the presence of desiccant appears to further increase the stability of the ansolvate form D. Even though the dissolution rate of tablets containing polymorph D from one batch was below specification (<70%) at an initial test as well as after 3 months at 25° C./60% RH with desiccant, the subsequent batches met the required specification.

[2] = Assay and impurities by HPLC of tablets on storage; design: key to Individual Impurities RRT = 0.74 / Individual Impurities RRT = 0.83 / TLK 236 RRT = 0.88 / Individual Impurities RRT = 0.94 / Individual Impurities RRT = 0.96 / Total impurities / Individual Impurities RRT = 0.80 / Individual Impurities RRT = 0.81 / Individual Impurities RRT = 0.86 / Individual Impurities RRT = 0.99: impurity content in %
Excerpt: As used herein, “impurity” refers to one or more of: TLK 236, another polymorphic form of ezatiostat hydrochloride including without limitation form A, B, C, E, or F, and any other compound other than ezatiostat hydrochloride ansolvate, which may be identified by HPLC. TLK 236 is a monoester derived from the partial hydrolysis of ezatiostat where the phenyl glycine moiety remains esterified.
(§2) As described above, form E converts to form B simply during tableting.
as §1

[3] = Tablet dissolution (Q at 45 min); conditions: for Dissolution, Mean at 45 min: tablets
Excerpt: Without being bound by theory, a higher dissolution rate relates to a higher amount of the active agent in the gastric fluid, which in turn relates to higher bioavailability of the active agent. A high bioavailability is desired, for example and without limitation, for reducing inter patient variability of drug exposure for a orally administered agent such as ezatiostat hydrochloride. […] The aqueous solubility can be measured in a variety of aqueous solvents, including without limitation, water, 0.9% aqueous NaCl, 5% dextrose for injection, phosphate buffered saline, and generally aqueous solutions having a pH of less than about 5. Such solvents may include suitable buffers and other salts. […]
as §1

[4] = Water content of tablets on storage
Description: Karl Fischer analyses for water determination were performed on a Mettler Toledo DL39 Karl Fischer titrator. About 10-15 mg of sample was placed in the KF titration vessel containing approximately 100 mL of Hydranal®—Coulomat AD reagent and mixed for 60 seconds to ensure dissolution. The dissolved sample was then titrated by means of a generator electrode which produces iodine by electrochemical oxidation. […]
as §1

[5] = X-ray diffraction, polymorphic form in tablets; conditions: for X-ray Diffraction: tablets
Description: X-ray powder diffraction (XRPD) analyses were performed on a Shimadzu XRD-6000 X-ray powder diffractometer using Cu Kα radiation from a long fine focus X-ray tube, operated at 40 kV, 40 mA. The divergence and scattering slits were set at 1° and the receiving slit was set at 0.15 mm. Diffracted radiation was detected by a NaI scintillation detector. A θ-2θ continuous scan at 3°/min (0.4 sec/0.02° step) from 2.5°-40° 2θ was used. A silicon standard was analyzed to check alignment of the instrument. Data were collected and analyzed using XRD-6000 v.4.1 software.
Stress experiments: solids were stressed under different temperature and/or relative humidity (RH) environments for a measured time period. Specific RH values were achieved by placing the sample inside sealed chambers containing saturated salt solutions. Samples were analyzed by XRPD immediately after removal from the stress environment.
as §2, §1

[6] = Assay and impurities by HPLC of tablets on storage; design: key to Individual Impurities RRT = 0.74 / TLK 236 RRT = 0.88 / Individual Impurities RRT = 0.96 / Total impurities: impurity content in %; conditions: 6 Month at 40° C./75% RH without desiccant, hydrochloride
[7] = 3 Month at 25° C./60% RH with desiccant
[8] = 3 Month at 40° C./75% RH with desiccant
[9] = 3 Month at 40° C./75% RH without desiccant
[10] = 6 Month at 40° C./75% RH without desiccant, hydrochloride
[11] = 3 Month at 40° C./75% RH without desiccant, hydrochloride
[12] = 3 Month at 40° C./75% RH without desiccant, listed as Form D Ansolvate, hydrochloride
[13] = Initial, listed as Form D Ansolvate, hydrochloride

Compound: CCOC(=O)[C@@H](N)CCC(=O)N[C@@H](CSCc1ccccc1)C(=O)N[C@@H](C(=O)OCC)c1ccccc1.Cl [Polymorph Form D, ezatiostat hydrochloride]
- Description [1, 7]: White round
- Description [1, 8]: Off-white
- Description [1, 9]: Off-white
- Description [1, 10]: Brown round
- Description ([1]; Initial): White round
- Assay (HPLC) [2, 7]: 99.7 % Label Claim
- Individual Impurities RRT = 0.74/0.72 [2, 7]: 0.16
- Individual Impurities RRT = 0.96 [2, 7]: 0.19
- TLK 236 RRT = 0.88 [2, 7]: 0.34
- Total impurities [2, 7]: 0.7
- Assay (HPLC) [2, 8]: 100.8 % Label Claim
- Individual Impurities RRT = 0.74/0.72 [2, 8]: 0.16
- Individual Impurities RRT = 0.83 [2, 8]: 0.09
- Individual Impurities RRT = 0.94 [2, 8]: 0.06
- Individual Impurities RRT = 0.96 [2, 8]: 0.19
- TLK 236 RRT = 0.88 [2, 8]: 0.53
- Total impurities [2, 8]: 1.0
- Individual Impurities RRT = 0.74/0.72 [2, 9]: 0.18
- Assay (HPLC) [2, 11]: 100.3 % Label Claim
- Individual Impurities RRT = 0.74 [2, 11]: 0.21
- Individual Impurities RRT = 0.83 [2, 11]: 0.07
- Individual Impurities RRT = 0.94 [2, 11]: 0.07
- Individual Impurities RRT = 0.96 [2, 11]: 0.19
- TLK 236 RRT = 0.88 [2, 11]: 1.33
- Total impurities [2, 11]: 1.9
- Assay (HPLC) [2, 12]: 100.3 % Label Claim
- Individual Impurities RRT = 0.83 [2, 12]: 0.08
- Individual Impurities RRT = 0.94 [2, 12]: 0.07
- Individual Impurities RRT = 0.96 [2, 12]: 0.18
- TLK 236 RRT = 0.88 [2, 12]: 1.3
- Total impurities [2, 12]: 1.8
- Individual Impurities RRT = 0.83 [2, 10]: 0.09
- increase in total impurities ([2]; 25° C./60% RH with desiccant for 3 months): no increase
- increase in total impurities ([2]; 40° C./75% RH with desiccant for 3 months): 0.3%
- increase in total impurities ([2]; 40° C./75% RH without desiccant for 3 months): 1.1%
- Individual Impurities RRT = 0.74/0.72 ([2]; Initial): 0.21
- Assay (HPLC) ([2]; Initial, hydrochloride): 101.4 % Label Claim
- Individual Impurities RRT = 0.74 ([2]; Initial, hydrochloride): 0.21
- Individual Impurities RRT = 0.96 ([2]; Initial, hydrochloride): 0.18
- TLK 236 RRT = 0.88 ([2]; Initial, hydrochloride): 0.35
- Total impurities ([2]; Initial, hydrochloride): 0.7
- Assay (HPLC) [2, 13]: 101.4 % Label Claim
- Individual Impurities RRT = 0.96 [2, 13]: 0.18
- TLK 236 RRT = 0.88 [2, 13]: 0.35
- Total impurities [2, 13]: 0.7
- aqueous dissolution rate ([3]; as part of a tablet, measured in 0.1 molar HCl): higher aqueous dissolution rate than polymorphic form E
- Dissolution, Mean at 45 min ([3]; 3 Month at 25° C./60% RH with desiccant, listed as Form D Ansolvate, hydrochloride): Mean = 46 % of label claim
- Dissolution, Mean at 45 min ([3]; 3 Month at 25° C./60% RH with desiccant, listed as polymorph D, hydrochloride): < 70 % of label claim
- Dissolution, Mean at 45 min [3, 8]: Mean = 76 % of label claim
- Dissolution, Mean at 45 min [3, 11]: Mean = 88 % of label claim
- Dissolution, Mean at 45 min [3, 12]: Mean = 88 % of label claim
- Dissolution, Mean at 45 min [3, 10]: Mean = 81 % of label claim
- Dissolution, Mean at 45 min ([3]; Initial, hydrochloride): Mean = 51 % of label claim
- Dissolution, Mean at 45 min [3, 13]: Mean = 51 % of label claim
- Dissolution, Mean at 45 min ([3]; Initial, listed as polymorph D, hydrochloride): < 70 % of label claim
- Water Content [4, 7]: 0.5%
- Water Content [4, 8]: 0.6%
- Water Content [4, 11]: 0.8%
- Water Content [4, 12]: 0.8%
- Water Content [4, 10]: 0.8%
- Water Content ([4]; Initial, hydrochloride): 0.9%
- Water Content [4, 13]: 0.9%
- polymorphic conversion on storage ([5]; 40° C. and 75% RH without a desiccant, form D 6 months, form E 3 months, listed as ansolvate form D, hydrochloride): resistance to conversion to a solvate form
- X-ray Diffraction [5, 7]: Polymorph D
- X-ray Diffraction [5, 8]: Polymorph D
- X-ray Diffraction [5, 11]: Polymorph D
- X-ray Diffraction [5, 12]: Polymorph D
- X-ray Diffraction [5, 10]: Polymorph D
- X-ray Diffraction ([5]; Initial, hydrochloride): Polymorph D
- X-ray Diffraction [5, 13]: Polymorph D
- Assay (HPLC) [6]: 96.5 % Label Claim
- Individual Impurities RRT = 0.59/0.62 [6]: 0.08
- Individual Impurities RRT = 0.74 [6]: 0.20
- Individual Impurities RRT = 0.96 [6]: 0.23
- TLK 236 RRT = 0.88 [6]: 2.07
- Total impurities [6]: 2.7

Compound: CCOC(=O)[C@@H](N)CCC(=O)N[C@@H](CSCc1ccccc1)C(=O)N[C@@H](C(=O)OCC)c1ccccc1.Cl [Polymorphic form B, ezatiostat hydrochloride]
- rate of decomposition relative to ansolvate form D ([2]; Total impurities of Tables 5-7): more than double the rate of decomposition of the ansolvate form D

Compound: CCOC(=O)[C@@H](N)CCC(=O)N[C@@H](CSCc1ccccc1)C(=O)N[C@@H](C(=O)OCC)c1ccccc1.Cl [Polymorph Form A, ezatiostat hydrochloride]
- Description [1, 9]: Off-white
- Description [1, 10]: Off-white
- Description ([1]; Initial): White round
- Assay (HPLC) [2, 11]: 94.1 % Label Claim
- Individual Impurities RRT = 0.74 [2, 11]: 0.16
- Individual Impurities RRT = 0.80 [2, 11]: 0.08
- Individual Impurities RRT = 0.81 [2, 11]: 0.07
- Individual Impurities RRT = 0.83 [2, 11]: 0.10
- Individual Impurities RRT = 0.94 [2, 11]: 0.07
- Individual Impurities RRT = 0.96 [2, 11]: 0.16
- Individual Impurities RRT = 0.99 [2, 11]: 0.07
- TLK 236 RRT = 0.88 [2, 11]: 1.99
- Total impurities [2, 11]: 2.7
- Individual Impurities RRT = 0.80 [2, 10]: 0.14
- Individual Impurities RRT = 0.81 [2, 10]: 0.05
- Assay (HPLC) ([2]; Initial, hydrochloride): 97.2 % Label Claim
- Individual Impurities RRT = 0.74 ([2]; Initial, hydrochloride): 0.13
- Individual Impurities RRT = 0.83 ([2]; Initial, hydrochloride): 0.46
- Individual Impurities RRT = 0.96 ([2]; Initial, hydrochloride): 0.16
- TLK 236 RRT = 0.88 ([2]; Initial, hydrochloride): 0.45
- Total impurities ([2]; Initial, hydrochloride): 1.2
- Dissolution, Mean at 45 min [3, 11]: Mean = 74 % of label claim
- Dissolution, Mean at 45 min [3, 10]: Mean = 71 % of label claim
- Dissolution, Mean at 45 min ([3]; Initial, hydrochloride): Mean = 12 % of label claim
- Water Content [4, 11]: 1.7%
- Water Content [4, 10]: 1.9%
- Water Content ([4]; Initial, hydrochloride): 2.1%
- polymorphic conversion during tablet manufacture ([5]; during tablet manufacture, listed as solvate form A, hydrochloride): converting into a mixture of forms A and D during manufacture
- X-ray Diffraction [5, 11]: Polymorph A
- X-ray Diffraction [5, 10]: Polymorph A
- X-ray Diffraction ([5]; Initial, hydrochloride): Polymorph A
- Assay (HPLC) [6]: 91.5 % Label Claim
- Individual Impurities RRT = 0.59/0.62 [6]: 0.07
- Individual Impurities RRT = 0.74 [6]: 0.15
- Individual Impurities RRT = 0.96 [6]: 0.21
- TLK 236 RRT = 0.88 [6]: 2.92
- Total impurities [6]: 3.5
